Values quoted from earlier work, collected in publication PMC11214510 (Saudi Journal of Biological Sciences, 2024).

Test system: AChE
Details: mice, long-term supplementation, 40 mg/kg; ref Kasbe et al., 2015

## O=c1c2cc(O)c(O)cc2oc2cc(O)c([C@@H]3O[C@H](CO)[C@@H](O)[C@H](O)[C@H]3O)c(O)c12 [mangiferin]
  AChE expression produced by AlCl3: inhibits the expression of AChE
